Laboratory results as given in PubChem BioAssay AID2060909 (Molecular Pharmacology Branch, DTP, NCI, 2025).

Tested on: 362531-283-R-J2-PDC complex spheroid viability
Assay: Anticancer human tumor 362531-283-R-J2-PDC patient-derived colon adenocarcinoma cell line growth inhibition [RAS]
Details: for IC50: curve of first compound; for viability, T/C: stronger effect = lower value
Outline: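 Tumour cells grown as complex spheroids with HUVEC endothelial cells and mesenchymal stem cells, treated with RAS pathway inhibitor combinations. Each agent spans half-log steps from near clinical Cmax, or 10 microM where Cmax is unknown.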
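Also: spheroids exposed to the agents for 7 days before readout.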
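For viability, T/C in this document: luminescence viability as percent of DMSO vehicle control wells.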

`CC(=O)OC12COC1CC(O)C1(C)C(=O)C(O)C3=C(C)C(OC(=O)C(O)C(NC(=O)OC(C)(C)C)c4ccccc4)CC(O)(C(OC(=O)c4ccccc4)C21)C3(C)C` (configuration not stated) + CCn1c(-c2cc(N3CCN(C)CC3)cnc2C(C)OC)c2c3cc(ccc31)-c1csc(n1)CC(NC(=O)C1CC1C)C(=O)N1CCCC(N1)C(=O)OCC(C)(C)C2 showed an IC50 (second compound 0.000949 µM) of 214 nM, an IC50 (second compound 0.003 µM) of 215 nM and an IC50 (second compound 0.00949 µM) of 192 nM. It also gave an IC50 (second compound 0.03 µM) of 164 nM, an IC50 (second compound 0.0949 µM) of 137 nM and an IC50 (second compound 0.3 µM) of less than 31.6 nM. It also gave a viability, T/C (second compound 0.000949 µM, first compound 0.0316 µM) of 92.9%, a viability, T/C (second compound 0.000949 µM, first compound 0.1 µM) of 95.2% and a viability, T/C (second compound 0.000949 µM, first compound 0.316 µM) of 27.5%. It also gave a viability, T/C (second compound 0.000949 µM, first compound 1 µM) of 16.7%, a viability, T/C (second compound 0.000949 µM, first compound 3.16 µM) of 18.1% and a viability, T/C (second compound 0.000949 µM, first compound 10 µM) of 31.9%. The viability, T/C (second compound 0.003 µM, first compound 0.0316 µM) was 103%, the viability, T/C (second compound 0.003 µM, first compound 0.1 µM) was 92.7% and the viability, T/C (second compound 0.003 µM, first compound 0.316 µM) was 28.7%. It also gave a viability, T/C (second compound 0.003 µM, first compound 1 µM) of 13.6%, a viability, T/C (second compound 0.003 µM, first compound 3.16 µM) of 19.1% and a viability, T/C (second compound 0.003 µM, first compound 10 µM) of 19.9%. For the same compound, the viability, T/C (second compound 0.00949 µM, first compound 0.0316 µM) was 94.2%, the viability, T/C (second compound 0.00949 µM, first compound 0.1 µM) was 91% and the viability, T/C (second compound 0.00949 µM, first compound 0.316 µM) was 18.8%. For the same compound, the viability, T/C (second compound 0.00949 µM, first compound 1 µM) was 12.9%, the viability, T/C (second compound 0.00949 µM, first compound 3.16 µM) was 9.58% and the viability, T/C (second compound 0.00949 µM, first compound 10 µM) was 15.8%. For the same compound, the viability, T/C (second compound 0.03 µM, first compound 0.0316 µM) was 76.8%, the viability, T/C (second compound 0.03 µM, first compound 0.1 µM) was 77.5% and the viability, T/C (second compound 0.03 µM, first compound 0.316 µM) was 14.2%. For the same compound, the viability, T/C (second compound 0.03 µM, first compound 1 µM) was 7.82%, the viability, T/C (second compound 0.03 µM, first compound 3.16 µM) was 8.32% and the viability, T/C (second compound 0.03 µM, first compound 10 µM) was 11.6%. The viability, T/C (second compound 0.0949 µM, first compound 0.0316 µM) was 68.7%, the viability, T/C (second compound 0.0949 µM, first compound 0.1 µM) was 65.5% and the viability, T/C (second compound 0.0949 µM, first compound 0.316 µM) was 9.07%. It also gave a viability, T/C (second compound 0.0949 µM, first compound 1 µM) of 7.86%, a viability, T/C (second compound 0.0949 µM, first compound 3.16 µM) of 8.53% and a viability, T/C (second compound 0.0949 µM, first compound 10 µM) of 7.69%. It also gave a viability, T/C (second compound 0.3 µM, first compound 0.0316 µM) of 43.2%, a viability, T/C (second compound 0.3 µM, first compound 0.1 µM) of 20.1% and a viability, T/C (second compound 0.3 µM, first compound 0.316 µM) of 7.36%. The viability, T/C (second compound 0.3 µM, first compound 1 µM) was 4.87%, the viability, T/C (second compound 0.3 µM, first compound 3.16 µM) was 5.33% and the viability, T/C (second compound 0.3 µM, first compound 10 µM) was 4.75%.
